We go through two compounds from patent US4276890A, “Tobacco smoking inhibitor” (priority 1979, dated 1981).

Structures are written as SMILES.

In one series the test system is smoking behavior. Conditions: cited from earlier work.
Series [1] deals with tobacco consumption of habitual smokers. As to the kind of experiment: General observations of treatment on tobacco consumption and subjective effects. Format: in vivo, human (test subjects. An excerpt:
In a preferred embodiment, finely divided ethyl maltol is distributed in a chewing gum base, which when chewed by the subject, results in a gradual release of ethyl maltol into the oral cavity. When administered in appropriate amounts over a period of several days, there results a gradual decrease in the number of cigarettes smoked and the length of time they are smoked. […] Reductions in the frequency and quantity of smoking have been observed in test subjects who were unaware that their smoking behavior was monitored. […] Subjectively, test subjects experience a reduced desired to smoke, tend to neglect the opportunities to light up a cigarette and tend to leave cigarettes unsmoked in the ashtray after a few puffs. The effect is sufficiently subtle that a smoker is sometimes unaware that their tobacco consumption rate was decreased until such point as the lowered consumption rate becomes obvious. For smokers sincerely desiring to reduce or eliminate their smoking, the effect of the treatment is most gratifying. However, for smokers who are not psychologically committed to giving up smoking, the effects may be alarming. It is of course, possible to override the effects of the treatment by conscious effort to smoke at the pre-treatment rate.
Smoking behavior is complex and includes cigarette, pipe and cigar smoking. Both from the standpoint of habituation and of health hazard, cigarette smoking is considered to be the most serious. It is contemplated that the treatment method described herein will be effective to inhibit all forms of smoking behavior and combinations thereof, involving the consumption of tobacco. For convenience, the ensuing discussion focuses on cigarette smoking, as exemplary of smoking behavior in general. Tobacco consumption is a function the number of cigarettes smoked and the proportion of each cigarette smoked. Reduction of consumption is measured by comparison with a smoker's pretreatment consumption rate. All data used herein are expressed as percent reduction, i.e., the differential between pretreatment and current smoking consumption rate divided by the pretreatment rate, times 100. All rates are calculated to take into account both the number of cigarettes smoked and the proportion of each smoked.
Duration of treatment may be as little as ten days, preferably 20 to 30 days. As might be expected with a complex behavior such as smoking, where psychological and social factors play a major role in addition to individual variations in nicotine susceptibility and responsiveness to gamma pyrone, the rate of smoking reduction during treatment is highly variable. Typically, a gradual reduction to about 50% to the pretreatment rate is observed over the first four to six days. Frequently, little or no reduction is observed for the first two days, although occasionally a dramatic reduction is observed almost immediately. In the ensuing seven to ten days, further reductions, typically 70 to 100%, are observed. Reduction below the 50% level in the first 3-5 days is sometimes accompanied by the physiological (but not psychological) symptoms of nicotine withdrawl, such as vertigo, alimentary distress, diuresis, scotoma and disorientation. Such symptoms have never been observed in non-smoking control subjects using the same gamma pyrone dosages. […] The entire course of treatment is therefore extended somewhat, preferably to about 20 to 30 days total. […]

Series [2] has as its system spontaneous motor activity. Conditions: mice, 75 mg/kg; cited from earlier work.
Series [3] has as its system convulsions produced by pentylenetetrazole or strychnine. Conditions: 300 to 500 mg per kg; cited from earlier work.
Series [4] deals with hexobarbital-induced sleeping time. Conditions: 300 to 500 mg per kg; cited from earlier work.
The test system of a further series is mice. Conditions: cited from earlier work.
Another series concerns rat brain cortex slices. Conditions: in vitro; cited from earlier work.
The conditions of series [5]: cited from earlier work.
The conditions of series [6]: cited from earlier work. The source holds these as a separate data set.
Series [7] relates to rate of weight gain in animals. Conditions: animal feeds, up to 200 grams per ton; cited from earlier work.

As for `CN1[C@@H](CC(=O)c2ccccc2)CCC[C@H]1C[C@H](O)c1ccccc1` [lobeline], the “effectiveness versus placebo for smoking” value in the series with smoking behavior (controlled double blind tests) is listed as “ineffective, i.e., no more effective than placebos”. Also, in the series with smoking behavior (in vivo), the pharmacological action result is given as “weak nicotine-like action” and the “withdrawal syndrome on discontinuation” value is given as “apparently discontinuable without a withdrawal syndrome”.
As to `Cc1occc(=O)c1O` [maltol, 3-hydroxy-2-methyl-4-pyrone], the “tobacco consumption of habitual smokers” value in [1] (appropriate dosage levels and rates) is reported as “significantly reduces the tobacco consumption of habitual smokers”. The “minimum effective dose relative to ethyl maltol” value in series [1] (in vivo) is recorded as 4 to 6 times greater. Besides, the “spontaneous motor activity, decrease” value in [2] was “approximately 50%”. In addition, in [3], the “convulsions produced by pentylenetetrazole or strychnine” value is “inhibited convulsions”. For the same compound, the hexobarbital-induced sleeping time result in series [4] is recorded as “potentiating hexobarbital-induced sleeping time”. In addition, the “acute LD50” value with mice is given as 820 mg per kg. Moreover, the “oxygen intake by rat brain cortex slices” value with rat brain cortex slices was “not affected”. Further, the consumption per day result in series [5] (as much as 1.5 grams per day) was “completely harmless”. Besides, in [5] (per day), the “safe average daily intake” value was 1 mg per kg. Moreover, in series [6] (after oral administration), the absorption result is reported as “rapidly absorbed”; the excretion entry is recorded as “rapidly excreted”; the form of excretion entry is “primarily as glucuronide and ethereal sulfate conjugates”. In series [6] (in vivo), the metabolism and excretion entry was “rapidly metabolized and excreted”. Further, in series [7], the “rate of weight gain” value is given as “improves the rate of weight gain”.
